Patent US4968672A, “Adenosine receptor prodrugs” (priority 1987, dated 1990)
Counter-ions that a name gives are not always drawn. Like-named read-outs stand apart in the source and are kept apart here.

Assays:
A1 adenosine receptors = biological target: T1, A1 adenosine receptors (Rattus norvegicus, UniProt P25099); test: membrane binding assay at A1 adenosine receptors (Tables 1 and 2)
T1 construct: rat cerebral cortex membranes; from tissue; host or cells: rat cerebral cortex membranes
T1 sequence (P25099 1-326): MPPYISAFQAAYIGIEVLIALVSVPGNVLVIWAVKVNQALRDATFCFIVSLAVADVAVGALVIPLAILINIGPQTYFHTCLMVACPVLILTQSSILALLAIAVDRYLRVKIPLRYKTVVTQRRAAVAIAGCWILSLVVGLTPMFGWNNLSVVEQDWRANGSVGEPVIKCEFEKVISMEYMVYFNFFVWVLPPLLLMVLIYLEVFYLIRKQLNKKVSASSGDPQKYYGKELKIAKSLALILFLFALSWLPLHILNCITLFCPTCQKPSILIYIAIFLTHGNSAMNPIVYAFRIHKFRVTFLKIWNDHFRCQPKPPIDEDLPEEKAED
Text: Table 2 lists prodrugs (including Routes A and B of FIG. 2) and chemical intermediates, based on xanthine and adenosine functionalized congener and the method of synthesis. The potency of each compound at A1 adenosine receptors is indicated by the Ki (inverse relationship to potency) in a membrane binding assay.

A2 receptor = biological target: T2, A2 receptor (Homo sapiens, UniProt P29274); test: antagonism of NECA-induced stimulation of adenylate cyclase activity in human platelet membranes; format: biochemical; conditions: antagonism of NECA-stimulated adenylate cyclase, human platelet membranes; means with 95% confidence limits from 3 experiments; read-out: A2 receptor KB
T2 construct: human platetlet membranes; from tissue; host or cells: human platelet membranes
T2 sequence (P29274 whole entry): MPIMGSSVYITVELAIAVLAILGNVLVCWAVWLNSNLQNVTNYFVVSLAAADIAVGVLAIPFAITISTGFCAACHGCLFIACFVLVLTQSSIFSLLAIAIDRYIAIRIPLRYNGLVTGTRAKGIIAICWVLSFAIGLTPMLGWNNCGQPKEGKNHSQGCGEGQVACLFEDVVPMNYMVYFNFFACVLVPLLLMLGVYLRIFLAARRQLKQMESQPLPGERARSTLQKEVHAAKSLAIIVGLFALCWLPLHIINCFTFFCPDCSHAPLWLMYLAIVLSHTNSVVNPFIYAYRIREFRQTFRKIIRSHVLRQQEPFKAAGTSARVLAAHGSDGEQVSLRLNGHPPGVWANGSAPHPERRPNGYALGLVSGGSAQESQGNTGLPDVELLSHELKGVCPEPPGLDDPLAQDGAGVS
Method: (§1) Measurements of the potencies of the xanthines as antagonists of NECA-induced stimulation of adenylate cyclase activity in human platetlet membranes and as inhibitors of [^3 H]PIA binding to rat cerebral cortex membranes were carried out as reported previously.

A1 receptor = biological target: T3, A1 receptor (Rattus norvegicus, UniProt P25099); test: inhibition of [3H]PIA binding to rat cerebral cortex membranes
T3 construct: rat cerebral cortex membranes; from tissue; host or cells: rat cerebral cortex membranes
T3 sequence (P25099 1-326): T1 sequence (P25099 1-326)
Method: as §1

[1] = Table 1, prodrug before cleavage, read-out: Ki(nM) at A1 Before Cleavage
[2] = Table 1, liberated product, read-out: Ki(nM) at A1 After Cleavage
[3] = [3H]PIA, rat cerebral cortex membranes, means from two experiments, read-out: A1 receptor Ki

SMILES | Ki (A1 adenosine receptors; Table 2, read-out: Ki (A1(nM))) [nM] | also measured
CCCCCCCCCCCCCC(=O)OCC(COC(=O)CCCCCCCCCCCCC)OC(=O)COc1ccc(-c2nc3c([nH]2)c(=O)n(CCC)c(=O)n3CCC)cc1 [1,3-dimyristin-(2-XCC), 1,3-Dimyristin-2-XCC] | 104 ± 7.7 | Ki (A1 adenosine receptors; [1]): 104 nM
CCCn1c(=O)c2c(nc(-c3ccc(OCC(=O)NCCN)cc3)n2Cc2ccccc2)n(CCC)c1=O [(N7-benzyl)XAC] | 250 | 
CCCn1c(=O)c2[nH]c(-c3ccc(OCC(=O)NCCNC(=O)[C@H](CC(=O)OCc4ccccc4)NC(=O)OC(C)(C)C)cc3)nc2n(CCC)c1=O [BocAsp(OBzl)XAC] | 150 | Ki (A1 adenosine receptors; [1]): 150 nM
CCCn1c(=O)c2[nH]c(-c3ccc(OCC(=O)NCCNC(=O)[C@@H](Cc4ccc([N+](=O)[O-])cc4)NC(=O)OC(C)(C)C)cc3)nc2n(CCC)c1=O [BocD(p-NO2)PheXAC] | 89 | 
CCCn1c(=O)c2[nH]c(-c3ccc(OCC(=O)NCCNC(=O)[C@@H](Cc4ccc(N)cc4)NC(=O)OC(C)(C)C)cc3)nc2n(CCC)c1=O [Compound 10] | 32 | 
CCCn1c(=O)c2[nH]c(-c3ccc(OCC(=O)NCCNC(=O)CNC(=O)[C@@H](N)Cc4ccc(O)cc4)cc3)nc2n(CCC)c1=O [Compound 22] |  | Ki (A1 adenosine receptors): 5.3 nM
CCCn1c(=O)c2[nH]c(-c3ccc(OCC(=O)NCCNC(=O)[C@@H](NC(=O)[C@@H](N)Cc4ccc(O)cc4)C(C)C)cc3)nc2n(CCC)c1=O [Compound 26] |  | Ki (A1 adenosine receptors): 3 nM
CCCn1c(=O)c2[nH]c(-c3ccc(OCC(=O)NCCNC(=O)c4ccc[n+](C)c4)cc3)nc2n(CCC)c1=O [Compound 43] | 40 | Ki (A1 adenosine receptors; [2]): 10 nM; Ki (A1 adenosine receptors; [1]): 10 nM
Cn1c(=O)c2[nH]c(-c3ccccc3)nc2n(C)c1=O [Compound 51a] |  | Kb (A2 receptor): 1900 nM
CCn1c(=O)c2[nH]c(-c3ccccc3)nc2n(CC)c1=O [Compound 51b] |  | Kb (A2 receptor): 210 nM
CCCn1c(=O)c2[nH]c(-c3ccccc3)nc2n(CCC)c1=O [Compound 51c, 1,3-dipropyl-8-phenylxanthine] |  | Ki (A1 receptor; [3]): 13 nM
Cc1ccc(NC(=O)COc2ccc(-c3nc4c([nH]3)c(=O)n(C)c(=O)n4C)cc2)cc1 [Compound 57a] |  | Ki (A1 receptor; [3]): 27 nM
CCCn1c(=O)c2[nH]c(-c3ccc(OCC(=O)NCCNC(=O)CN)cc3)nc2n(CCC)c1=O [HGlyXAC] |  | Ki (A1 adenosine receptors; [2]): 2.1 nM
CCCn1c(=O)c2[nH]c(-c3ccc(OCC(=O)NCCNC(=O)CN(CC(=O)O)C(=O)OCC4c5ccccc5-c5ccccc54)cc3)nc2n(CCC)c1=O [HO2 CCH2N(FMOC)CH2 COXAC, 8-[N -Carboxymethyl-N -(9-fluorenylmethyloxycarbonyl) -[[[[[[[[[amino]methyl]carbonyl]amino]ethyl]amino]carbonyl]methyl]-oxy]phenyl]-1,3-dipropylxanthine] | 170 | 
CCCn1c(=O)c2[nH]c(-c3ccc(OCC(=O)NCCNC(=O)[C@@H](N)C(C)C)cc3)nc2n(CCC)c1=O [HValXAC] |  | Ki (A1 adenosine receptors; [2]): 3 nM
CCCCC/C=C\C/C=C\CCCCCCCC(=O)NCCNC(=O)COc1ccc(-c2nc3c([nH]2)c(=O)n(CCC)c(=O)n3CCC)cc1 [N-linoleyl-XAC] | 35 | 
CCCn1c(=O)c2c(nc(-c3ccc(OCC(=O)NCCNC(=O)OCc4ccccc4)cc3)n2Cc2ccccc2)n(CCC)c1=O [NCbz(N7-benzyl)XAC] | 95 | 
CCCCCCCC/C=C/CCCCCCCC(=O)OCCNC(=O)COc1ccc(-c2nc3c([nH]2)c(=O)n(CCC)c(=O)n3CCC)cc1 [O-elaidoyl-XHC, Elaidic ester of hydroxy congener] | 85 | 
CCCCCCCCCCCCCCCCCC(=O)OCCNC(=O)COc1ccc(-c2nc3c([nH]2)c(=O)n(CCC)c(=O)n3CCC)cc1 [O-stearoyl-XHC] | 208 | Ki (A1 adenosine receptors; [1]): 208 nM
CCCn1c(=O)c2[nH]c(-c3ccc(OCC(=O)NCCNC(=O)CC[C@H](N)C(=O)OCc4ccccc4)cc3)nc2n(CCC)c1=O [TFA.HGlu(XAC)OBzl, Glutamic acid (gamma-XAC) alpha benzyl ester trifluoroacetate] |  | Ki (A1 adenosine receptors): 1.8 nM
CCCCCCCCCCCCCC(=O)NCCNC(=O)COc1ccc(-c2nc3c([nH]2)c(=O)n(CCC)c(=O)n3CCC)cc1 [drawing 10] |  | Ki (A1 adenosine receptors; [1]): 49 nM
CCn1c(=O)c2[nH]c(-c3ccc(OCC(=O)N(C)CCN(C)C)cc3)nc2n(CC)c1=O [tri-methyl substition of 56b] |  | Ki (A1 receptor; read-out: Ki (A1-potency)): 1.5 nM

Further lines, with some results ahead:

Ki (A1 adenosine receptors; Table 2, read-out: Ki (A1(nM))) [nM] | SMILES | also measured
20 | CCCn1c(=O)c2[nH]c(-c3ccc(OCC(=O)NCCNC(=O)[C@H](CC(C)C)NC(C)=O)cc3)nc2n(CCC)c1=O [AcLeuXAC] | 
3.9 | CCCn1c(=O)c2[nH]c(-c3ccc(OCC(=O)NCCNC(=O)CNC(=O)[C@H](Cc4ccc(OC(C)=O)cc4)NC(C)=O)cc3)nc2n(CCC)c1=O [AcTyr(OAc)GlyXAC] | 
5 | CCCn1c(=O)c2[nH]c(-c3ccc(OCC(=O)NCCNC(=O)[C@@H](NC(=O)[C@H](Cc4ccc(OC(C)=O)cc4)NC(C)=O)C(C)C)cc3)nc2n(CCC)c1=O [AcTyr(OAc)ValXAC] | Ki (A1 adenosine receptors; [1]): 5 nM
30 | CCCn1c(=O)c2[nH]c(-c3ccc(OCC(=O)NCCNC(=O)[C@H](CC(=O)O)NC(=O)OC(C)(C)C)cc3)nc2n(CCC)c1=O [BocAspXAC] | 
18 | CCCn1c(=O)c2[nH]c(-c3ccc(OCC(=O)NCCNC(=O)CC[C@H](NC(=O)OC(C)(C)C)C(=O)OCc4ccccc4)cc3)nc2n(CCC)c1=O [BocGlu(XAC)OBzl, Boc-glutamyl(gamma-XAC)-alpha-benzyl ester] | 
10 | CCCn1c(=O)c2[nH]c(-c3ccc(OCC(=O)NCCNC(=O)CNC(=O)CNC(=O)CNC(=O)OCc4ccccc4)cc3)nc2n(CCC)c1=O [CbzGlyGlyGlyXAC] | 
3.1 | CCCn1c(=O)c2[nH]c(-c3ccc(OCC(=O)NCCNC(=O)CNC(=O)CNC(=O)OCc4ccccc4)cc3)nc2n(CCC)c1=O [CbzGlyGlyXAC] | 
4 | CCCn1c(=O)c2[nH]c(-c3ccc(OCC(=O)NCCNC(=O)CNC(=O)[C@H](Cc4ccc(O)cc4)NC(=O)OCc4ccccc4)cc3)nc2n(CCC)c1=O [CbzTyrGlyXAC] | Ki (A1 adenosine receptors; [1]): 4 nM
3.7 | CCCn1c(=O)c2[nH]c(-c3ccc(OCC(=O)NCCNC(=O)[C@@H](NC(=O)[C@H](Cc4ccc(O)cc4)NC(=O)OCc4ccccc4)C(C)C)cc3)nc2n(CCC)c1=O [CbzTyrValXAC] | 
3.6 | CCCn1c(=O)c2[nH]c(-c3ccc(OCC(=O)NCCNC(=O)CNC(=O)CN)cc3)nc2n(CCC)c1=O [Compound 20] | 
24 ± 1 | CCCCCCCC/C=C\CCCCCCCC(=O)OCC(COP(=O)(O)OCCNC(=O)COc1ccc(-c2nc3c([nH]2)c(=O)n(CCC)c(=O)n3CCC)cc1)OC(=O)CCCCCCC/C=C\CCCCCCCC (centres unmarked) [Compound 32, XCC-phosphatidylethanolamine] | potency at adenosine A1 receptors relative to compound 33 / to hydrolysis product (A1 adenosine receptors): of comparable potency
< 0.3 | CCCCCCCC/C=C/CCCCCCCC(=O)NCCNC(=O)Cc1ccc(NC(=O)Cc2ccc(Nc3ncnc4c3ncn4[C@@H]3O[C@H](CO)[C@@H](O)[C@H]3O)cc2)cc1 [Compound 37] | potency in the blocked form (A1 adenosine receptors): highly potent in the blocked form
13 | CCCn1c(=O)c2[nH]c(-c3ccc(OCC(=O)NCCO)cc3)nc2n(CCC)c1=O [Compound 39] | Ki (A1 adenosine receptors; [2]): 12 nM
12 | CCCn1c(=O)c2[nH]c(-c3ccc(OCC(=O)NCCOC(C)=O)cc3)nc2n(CCC)c1=O [Compound 40] | 
10 | CCCn1c(=O)c2[nH]c(-c3ccc(OCC(=O)NCCNC(=O)CNC(=O)CNC(=O)CN)cc3)nc2n(CCC)c1=O [HBr.HGlyGlyGlyXAC] | 
17 | CCCn1c(=O)c2[nH]c(-c3ccc(OCC(=O)NCCNC(=O)CC[C@H](N)C(=O)O)cc3)nc2n(CCC)c1=O [HGlu(XAC)OH] | 
20 | CCCCCC=CCC=CCCCCCCCC(=O)NC(Cc1ccc(OC(=O)CCCCCCCC=CCC=CCCCCC)cc1)C(=O)NCC(=O)NCCNC(=O)COc1ccc(-c2nc3c([nH]2)c(=O)n(CCC)c(=O)n3CCC)cc1 (centres unmarked) [Linoleyl-Tyr(O-linoleyl)-GlyXAC] | Ki (A1 adenosine receptors; [1]): 20 nM
0.5 | CCCCC/C=C\C/C=C\CCCCCCCC(=O)NCCNC(=O)Cc1ccc(NC(=O)Cc2ccc(Nc3ncnc4c3ncn4[C@@H]3O[C@H](CO)[C@@H](O)[C@H]3O)cc2)cc1 [N-linoleyl-ADAC] | 
1 | CCCCCCCCCCCCCCCCCC(=O)NCCNC(=O)Cc1ccc(NC(=O)Cc2ccc(Nc3ncnc4c3ncn4[C@@H]3O[C@H](CO)[C@@H](O)[C@H]3O)cc2)cc1 [N-stearoyl-ADAC, Stearoyl-ADAC] | 
8 | CCCn1c(=O)c2[nH]c(-c3ccc(OCC(=O)NCCNC(=O)OCc4ccccc4)cc3)nc2n(CCC)c1=O [NCbzXAC] | 
4 | CCCn1c(=O)c2[nH]c(-c3ccc(OCC(=O)NCCNC(=O)[C@H](N)Cc4ccc(N)c(I)c4)cc3)nc2n(CCC)c1=O [TFA.HD(p-NH2 -m-I)PheXAC] | 
2.3 | CCCn1c(=O)c2[nH]c(-c3ccc(OCC(=O)NCCNC(=O)[C@H](N)Cc4ccc(N)cc4)cc3)nc2n(CCC)c1=O [TFA.HD(p-NH2)PheXAC] | 
4.3 | CCCn1c(=O)c2[nH]c(-c3ccc(OCC(=O)NCCNC(=O)[C@H](N)Cc4ccc([N+](=O)[O-])cc4)cc3)nc2n(CCC)c1=O [TFA.HD(p-NO2)PheXAC] | 
